Patent publication US20200384007A1, “LIPID NANOPARTICLES CONTAINING PHARMACEUTICAL AND/OR NUTRACEUTICAL AGENTS AND METHODS THEREOF” (Board of Regents, The University of Texas System, priority 2019, published 2020)
Read-outs that look alike come from different tables or passages of the source.

Tests used:
[1] = in water; cited from earlier work
[2] = system: NCI-60 DTP human tumor cell lines; conditions: cited from earlier work
B16-F10 tumors [3] = experiment: Histology (H&E) of tumor tissues; format: in vivo, C57BL/6 mice; conditions: tumors collected on day 17 after i.v. treatment
Description: Tumor tissues were fixed in formalin, embedded, and stained with hematoxylin and eosin (H&E) in the Histological and Tissue Analysis Facility in the Dell Pediatric Research Institute at The University of Texas at Austin.

B16-F10 tumors [4] = experiment: Antitumor activity of i.v. DHA-dFdC-SLNs in a mouse model; format: in vivo; conditions: 50 mg/kg DHA-dFdC on days 7, 10, 13, 16
Description: Female C57BL/6 mice (18-20 g, 6-8 weeks) were subcutaneously (s.c.) injected with B16-F10 (5×10^5 cells/mouse) in the right flank on day 0. Seven days later, mice were randomized in 5 groups (n=5-6) and i.v. injected with DHA-dFdC (1 mg/mouse, equivalent to 50 mg/kg) dissolved a vehicle solution (Tween 80 (10%, w/v), ethanol (5.2%, v/v), and mannitol (5%, w/v) in water), the vehicle solution (as a control) (Naguib et al., Neoplasia, 2016; 18(1):33-48; Valdes et al., Pharma. Res., 2017; 34(6):1224-1232), DHA-dFdC-SLNs (equivalent to 1 mg of DHA-dFdC/mouse), or the equivalent dose of DHA-dFdC-free SLNs; both SLNs were dispersed in sterile mannitol 5%, (w/v). As a control, one group of mice were left untreated. Treatments were repeated every 3 days for a total of 4 times. Mouse health and tumor growth were monitored daily. Tumor size was measured 2-3 times a week, and tumor volume was calculated as: volume (mm^3)=(length×width^2)/2. Mice were euthanized 17 days after B16-F10 cell injection, and tumor tissues were collected for histology study. For untreated mice, the length of some of the tumors reached 15 mm before day 17 and had to be euthanized earlier.

[5] = in an aqueous solution, DBA/2 mice; cited from earlier work
[6] = Pharmacokinetic studies, oral and i.v. (Example 2); format: in vivo, C57BL/6 mice
Description: The Institutional Animal Care and Use Committee at The University of Texas at Austin approved the animal protocol. Female C57BL/6 mice (6-8 weeks, Charles River Laboratories, Wilmington, Mass.) were fasted for 3 h. Water was allowed ad libitum. Mice were orally gavaged with DHA-dFdC dissolved in a vehicle solution (Tween 80 (10%, w/v), ethanol (5.2% v/v), and mannitol (5%, w/v) in sterile water) (Naguib, et al., Neoplasia, 2016, 18, (1), 33-48; Valdes, et al., Pharma. Res., 2017, 34, (6), 1224-1232) or the DHA-dFdC-SLNs suspended in a sterile mannitol solution (5%, w/v), or intravenously injected with the DHA-dFdC-SLNs suspended in a sterile mannitol solution (5%, w/v). The dose of DHA-dFdC was 2 mg per mouse. Mice (n=3) were euthanized at various time points (e.g., 0.25, 0.5, 1, 2, 5, 8, 12, and 24 h). Blood was collected into heparin-coated tubes, which were then centrifuged at 13,000 rcf for 20 min to isolate plasma. The plasma (200 μL) was mixed with 200 μL of isopropanol and 200 μL of cold PBS, vortexed and then incubated at 4° C. for 5 min Following incubation, 1000 μl of ethyl acetate was added. The mixture was vortexed for 5 min, followed by centrifugation at 18,000 rcf for 5 min. The supernatant was collected and dried under nitrogen. Finally, the residue was re-dissolved in 100 μl of THF, which was then analyzed using HPLC (Naguib, et al., Neoplasia, 2016, 18, (1), 33-48). As internal control 4-(N)-stearoyl 2′,2′-difluorodeoxycytidine (GemC18) was added in the samples before extraction (Sloat, et al., Intl. J. Pharma., 2011, 409, (1), 278-288). Data were analyzed using PK Solver®, assuming a two-compartmental model (Wang, et al., Oncotarget, 2017, 8, (52), 89876).

[7] = Physical and chemical stability as lyophilized powder or dry waxy solid at room temperature; format: physicochemical; conditions: DHA-dFdC-vitamin E (5.047% w/w) waxy solid mixture, 14 days
Description: A 30% (w/v) stock solution of sucrose as lyoprotectant was prepared with de-ionized and filtered (0.2 μm) water. 900 μL DHA-dFdC-SLNs in water suspension was mixed with 100 μL sucrose solution to obtain a final suspension having 3% (w/v) sucrose. DHA-dFdC-SLNs in suspension were stored at −20° C. for 30 min, transferred to −80° C. for 60 min, and finally transferred to a VirTis Advantage bench top tray lyophilizer (The VirTis Company, Inc. Gardiner, N.Y.). Lyophilization was performed over 72 hours (h) at pressure less than 200 mTorr under nitrogen atmosphere. The shelf temperature was gradually ramped from −40° C. to 26° C. After lyophilization, samples were sealed and stored in a desiccator at room temperature, protected from light.
To evaluate the physical and chemical stability of DHA-dFdC-SLNs in lyophilized powder, DHA-dFdC was extracted from the powder 0, 7, and 30 days post-storage. Lyophilized samples were reconstituted in 1 mL de-ionized and filtered (0.2 μm) water. […] The sample was re-dissolved in 100 μL of THF, and concentration was measured by HPLC.
As a control, DHA-dFdC was dissolved in ethanol and mixed with vitamin E at a final concentration of 5.047% (w/w) (Naguib et al., Neoplasia, 2016; 18(1):33-48). The solution was dried under nitrogen, sealed, and stored at room temperature, protected from light, and the content of DHA-dFdC was measured at various time points

pancreatic tumor = conditions: several mouse models of pancreatic cancer; cited from earlier work
M-Wnt cells = experiment: In vitro cytotoxicity assay (MTT); format: cell-based, murine; conditions: Mus musculus, 24 h of incubation
Description: (§1) Cytotoxicity of DHA-dFdC-SLNs was evaluated in TC-1, B16-F10, and M-Wnt cells. Cells were seeded into 96-well plates (4000 cells/well for TC-1 and B16-F10 cells, 1000 cells/well for M-Wnt cells) and incubated at 37° C., 5% CO2 overnight. Cells were treated with various concentrations of DHA-dFdC, DHA-dFdC-SLNs, DHA-dFdC-free SLNs, or dimethyl sulfoxide (DMSO) for up to 48 h. As a control, cells were treated with fresh medium. Cell survival was determined using an MTT assay (Naguib et al., Mol. Pharma., 2014; 11(4):1239-1249). DHA-dFdC was dissolved in DMSO and diluted with cell culture media, whereas DHA-dFdC-SLNs and DHA-dFdC-free SLNs were dispersed directly in cell culture media.

B16-F10 cells = experiment: In vitro cytotoxicity assay (MTT); format: cell-based, murine; conditions: Mus musculus, B16F10 cells, 48 h of incubation
Description: as §1

B16-F10 tumors [8] = experiment: Antitumor activity of orally administered DHA-dFdC-SLNs in tumor-bearing mice (survival); format: in vivo; conditions: oral gavage
Description: Female C57BL/6 mice (18-20 g) were subcutaneously (s.c) injected with B16-F10 (5×10^5 cells/mouse) in the right flank on day 0. Seven days later, mice were randomized into 4 groups (n=7-8) and orally gavaged with DHA-dFdC (250 μg/mouse) dissolved in vehicle (Naguib, et al., Neoplasia, 2016, 18, (1), 33-48; Valdes, et al., Pharma. Res., 2017, 34, (6), 1224-1232), DHA-dFdC-SLNs (250 μg/mouse of DHA) dispersed in mannitol 5%, or DHA-dFdC-free SLNs dispersed in mannitol 5%. As a control, one group of mice were left untreated. Treatment was repeated every day until day 11. Mice were allowed to rest for two days, and treatment was resumed on day 13 and continued until day 20. Mice were monitored daily until the endpoint (e.g., death, tumor size reaching 15 mm, tumor ulceration, body weight loss of more than 20%, or other signs of severe distress and discomfort).

[9] = oral administration, 2 mg DHA-dFdC per mouse

CC/C=C\C/C=C\C/C=C\C/C=C\C/C=C\C/C=C\CCC(=O)Nc1ccn(C2OC(CO)C(O)C2(F)F)c(=O)n1 (stereo not shown) [DHA-dFdC, 4-(N)-docosahexaenoyl 2′, 2′-difluorodeoxycytidine]
intrinsic solubility [1]: ~25 µg/mL
antitumor activity [2]: potent and broad spectrum antitumor activity
H&E histology findings in tumors (B16-F10 tumors [3]): vascular collapse, high desmoplasia, and necrotic areas
tumor growth delay (B16-F10 tumors [4]): 4 days
tumor size / control of tumor growth versus comparison groups (B16-F10 tumors [4]): no significant difference
repeat dose-maximum tolerated dose [5]: 50 mg/kg
bioavailability ([6]; female, C57BL/6, mouse, plasma, 2 mg per mouse, oral, in Tween 80/ethanol/water solution): 54%
Tmax ([6]; female, C57BL/6, mouse, plasma, po, 2 mg, oral administration, 2 mg DHA-dFdC per mouse, read-out: Tmax): 1.7 h
Cmax ([6]; female, C57BL/6, plasma, oral administration, 2 mg DHA-dFdC per mouse): 10500 ng/mL
AUC(0-t) ([6]; female, C57BL/6, plasma, oral administration, 2 mg DHA-dFdC per mouse, read-out: AUC 0-24): 114 µg·h/mL
T1/2α [6, 9]: 1.07 h
Tmax [6, 9]: 1.75 h
k12 [6, 9]: 0.56 h⁻¹
DHA-dFdC left after storage [7]: 19.1%±7.0
control of pancreatic tumor growth versus gemcitabine (pancreatic tumor): significantly more effective than the molar equivalent dose of gemcitabine
IC50 (M-Wnt cells): 2.15 µM
IC50 (B16-F10 cells): 1.81 µM
survival compared to untreated mice (B16-F10 tumors [8]; 250 μg DHA-dFdC per mouse daily for 12 days): did not significantly affect mouse survival
mice showing signs of toxicity (body weight decrease of more than 20% or severe tumor ulceration) (B16-F10 tumors [8]; in Tween 80/ethanol/water solution, 250 μg per mouse daily): 62.5%
